Source: ChEMBL document CHEMBL1201862, “PubChem BioAssay data set” (2004)
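Following 48 hours of exposure in 96-well plates, responses at five concentrations were used to interpolate endpoints linearly. At the GI50, growth is halved.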 Calls of active or inactive are those of the source. Cut-off read from the data, not from the text of the source: active = GI50 up to about 1.1 µM and inactive = higher.

Experiments:
Test in all cases: growth of human tumour cells (NCI), 48 h
786-0 = tested on: 786-0
A549 = tested on: A549
ACHN = tested on: ACHN
BT-549 = tested on: BT-549
CAKI-1 = tested on: CAKI-1
DU-145 = tested on: DU-145
HOP-62 = tested on: HOP-62
IGROV-1 = tested on: IGROV-1
M14 = tested on: M14
NCI-H226 = tested on: NCI-H226
NCI-H23 = tested on: NCI-H23
NCI-H460 = tested on: NCI-H460
OVCAR-5 = tested on: OVCAR-5
RXF 393 = tested on: RXF 393
SK-MEL-2 = tested on: SK-MEL-2
SN12C = tested on: SN12C
UACC-257 = tested on: UACC-257
UO-31 = tested on: UO-31
A498 = tested on: A498
HCT-116 = tested on: HCT-116

SMILES: COC(=O)c1ccc(COC(=O)N2C=CCC2C(=O)O)cc1 (centres undefined)
- GI50 (786-0): > 100 µM (inactive)
- GI50 (A549): > 100 µM (inactive)
- GI50 (ACHN): > 100 µM (inactive)
- GI50 (BT-549): > 100 µM (inactive)
- GI50 (CAKI-1): > 100 µM (inactive)
- GI50 (DU-145): > 100 µM (inactive)
- GI50 (HOP-62): > 100 µM (inactive)
- GI50 (IGROV-1): > 100 µM (inactive)
- GI50 (M14): > 100 µM (inactive)
- GI50 (NCI-H226): > 100 µM (inactive)
- GI50 (NCI-H23): > 100 µM (inactive)
- GI50 (NCI-H460): > 100 µM (inactive)
- GI50 (OVCAR-5): > 100 µM (inactive)
- GI50 (RXF 393): > 100 µM (inactive)
- GI50 (SK-MEL-2): > 100 µM (inactive)
- GI50 (SN12C): > 100 µM (inactive)
- GI50 (UACC-257): > 100 µM (inactive)
- GI50 (UO-31): > 100 µM (inactive)

SMILES: S=c1[nH]c2c(Cl)c(Cl)c(Cl)c(Cl)c2[nH]1
- GI50 (786-0): 26.2 µM (inactive)
- GI50 (A498): 22.2 µM (inactive)
- GI50 (A549): 25.2 µM (inactive)
- GI50 (ACHN): 15.8 µM (inactive)
- GI50 (BT-549): 17.9 µM (inactive)
- GI50 (CAKI-1): 25.7 µM (inactive)
- GI50 (DU-145): 36.1 µM (inactive)
- GI50 (HCT-116): 21.1 µM (inactive)
- GI50 (HOP-62): 25.1 µM (inactive)
- GI50 (IGROV-1): 14.1 µM (inactive)
- GI50 (M14): 21.4 µM (inactive)
- GI50 (NCI-H23): 29.2 µM (inactive)
- GI50 (NCI-H460): 19.4 µM (inactive)
- GI50 (OVCAR-5): 25.8 µM (inactive)
- GI50 (RXF 393): 18.1 µM (inactive)
- GI50 (SN12C): 20.6 µM (inactive)
- GI50 (UACC-257): 19.4 µM (inactive)
- GI50 (UO-31): 16 µM (inactive)

SMILES: NNC(=S)N/N=C(/C(=O)Nc1ccc(Cl)c(Cl)c1)C(C1OC(=O)c2ccccc21)[N+](=O)[O-] (centres undefined)
- GI50 (786-0): > 100 µM (inactive)
- GI50 (A498): > 100 µM (inactive)
- GI50 (A549): > 100 µM (inactive)
- GI50 (ACHN): > 100 µM (inactive)
- GI50 (BT-549): > 100 µM (inactive)
- GI50 (CAKI-1): > 100 µM (inactive)
- GI50 (HCT-116): > 100 µM (inactive)
- GI50 (HOP-62): > 100 µM (inactive)
- GI50 (IGROV-1): 54.5 µM (inactive)
- GI50 (M14): > 100 µM (inactive)
- GI50 (NCI-H226): > 100 µM (inactive)
- GI50 (NCI-H23): > 100 µM (inactive)
- GI50 (NCI-H460): > 100 µM (inactive)
- GI50 (OVCAR-5): > 100 µM (inactive)
- GI50 (RXF 393): > 100 µM (inactive)
- GI50 (SK-MEL-2): > 100 µM (inactive)
- GI50 (SN12C): > 100 µM (inactive)
- GI50 (UACC-257): > 100 µM (inactive)
- GI50 (UO-31): > 100 µM (inactive)

SMILES: Cn1cc2c3ccccc3nc-2c2ccccc21 [ISOCRYPTOLEPINE]
- GI50 (786-0): 2.1 µM (inactive)
- GI50 (A498): 1.74 µM (inactive)
- GI50 (A549): 2.17 µM (inactive)
- GI50 (ACHN): 1.71 µM (inactive)
- GI50 (BT-549): 3.26 µM (inactive)
- GI50 (CAKI-1): 2.32 µM (inactive)
- GI50 (DU-145): 2.31 µM (inactive)
- GI50 (HCT-116): 1 µM (active)
- GI50 (HOP-62): 1.59 µM (inactive)
- GI50 (IGROV-1): 1.63 µM (inactive)
- GI50 (M14): 1.63 µM (inactive)
- GI50 (NCI-H23): 1.51 µM (inactive)
- GI50 (NCI-H460): 1.44 µM (inactive)
- GI50 (OVCAR-5): 2.14 µM (inactive)
- GI50 (SK-MEL-2): 1.91 µM (inactive)
- GI50 (SN12C): 1.57 µM (inactive)
- GI50 (UACC-257): 2.31 µM (inactive)
- GI50 (UO-31): 1.4 µM (inactive)

SMILES: [N-]=[N+]=Nc1cc(=O)[nH]nc1-c1ccccc1
- GI50 (786-0): > 100 µM (inactive)
- GI50 (A498): > 100 µM (inactive)
- GI50 (A549): > 100 µM (inactive)
- GI50 (ACHN): > 100 µM (inactive)
- GI50 (BT-549): > 100 µM (inactive)
- GI50 (DU-145): > 100 µM (inactive)
- GI50 (HCT-116): > 100 µM (inactive)
- GI50 (HOP-62): > 100 µM (inactive)
- GI50 (IGROV-1): > 100 µM (inactive)
- GI50 (M14): > 100 µM (inactive)
- GI50 (NCI-H226): > 100 µM (inactive)
- GI50 (NCI-H23): > 100 µM (inactive)
- GI50 (NCI-H460): > 100 µM (inactive)
- GI50 (RXF 393): > 100 µM (inactive)
- GI50 (SN12C): > 100 µM (inactive)
- GI50 (UACC-257): > 100 µM (inactive)
- GI50 (UO-31): > 100 µM (inactive)

SMILES: CCCC[C@H]1CCN2C[C@@H](O)[C@@H](O)[C@H]2[C@@H]1O
- GI50 (786-0): > 100 µM (inactive)
- GI50 (A498): > 100 µM (inactive)
- GI50 (A549): > 100 µM (inactive)
- GI50 (ACHN): > 100 µM (inactive)
- GI50 (BT-549): > 100 µM (inactive)
- GI50 (CAKI-1): > 100 µM (inactive)
- GI50 (DU-145): > 100 µM (inactive)
- GI50 (HCT-116): > 100 µM (inactive)
- GI50 (IGROV-1): > 100 µM (inactive)
- GI50 (M14): > 100 µM (inactive)
- GI50 (NCI-H226): > 100 µM (inactive)
- GI50 (NCI-H23): > 100 µM (inactive)
- GI50 (NCI-H460): > 100 µM (inactive)
- GI50 (OVCAR-5): > 100 µM (inactive)
- GI50 (SK-MEL-2): > 100 µM (inactive)
- GI50 (SN12C): > 100 µM (inactive)
- GI50 (UACC-257): > 100 µM (inactive)
- GI50 (UO-31): > 100 µM (inactive)

SMILES: C[C@@H](c1ccccc1)N1CN(C(=O)OCc2ccccc2)C(CO)C1=O (some centres undefined)
- GI50 (786-0): > 100 µM (inactive)
- GI50 (A549): > 100 µM (inactive)
- GI50 (ACHN): > 100 µM (inactive)
- GI50 (BT-549): > 100 µM (inactive)
- GI50 (CAKI-1): > 100 µM (inactive)
- GI50 (DU-145): > 100 µM (inactive)
- GI50 (HCT-116): > 100 µM (inactive)
- GI50 (HOP-62): > 100 µM (inactive)
- GI50 (IGROV-1): > 100 µM (inactive)
- GI50 (M14): > 100 µM (inactive)
- GI50 (NCI-H226): > 100 µM (inactive)
- GI50 (NCI-H23): > 100 µM (inactive)
- GI50 (NCI-H460): > 100 µM (inactive)
- GI50 (OVCAR-5): > 100 µM (inactive)
- GI50 (RXF 393): 61.1 µM (inactive)
- GI50 (SK-MEL-2): > 100 µM (inactive)
- GI50 (SN12C): > 100 µM (inactive)
- GI50 (UACC-257): 95.7 µM (inactive)

SMILES: Cc1nnc([C@@]2(C)CC[C@H]3[C@@H](CCC4=CC(=O)CC[C@@]43C)[C@@H]2CC#N)o1
- GI50 (786-0): > 100 µM (inactive)
- GI50 (A498): > 100 µM (inactive)
- GI50 (A549): > 100 µM (inactive)
- GI50 (ACHN): > 100 µM (inactive)
- GI50 (BT-549): > 100 µM (inactive)
- GI50 (CAKI-1): > 100 µM (inactive)
- GI50 (HCT-116): > 100 µM (inactive)
- GI50 (HOP-62): > 100 µM (inactive)
- GI50 (IGROV-1): > 100 µM (inactive)
- GI50 (M14): > 100 µM (inactive)
- GI50 (NCI-H226): > 100 µM (inactive)
- GI50 (NCI-H23): > 100 µM (inactive)
- GI50 (OVCAR-5): > 100 µM (inactive)
- GI50 (RXF 393): > 100 µM (inactive)
- GI50 (SK-MEL-2): > 100 µM (inactive)
- GI50 (SN12C): > 100 µM (inactive)
- GI50 (UACC-257): > 100 µM (inactive)
- GI50 (UO-31): > 100 µM (inactive)
